Measurements taken from patent publication US20050197350A1, “Novel quinoline, tetrahydroquinazoline, and pyrimidine derivatives and methods of treatment related to the use thereof” (TAISHO PHARMACEUTICAL CO., LTD., priority 2003, published 2005).

System: MCH receptors
Assay: MCH receptor activity class (method not given)
Conditions: not given

Row | class | SMILES
1 | 1 | Cc1cc(N(C)C)nc(N[C@H]2CC[C@@H](C(=O)NCc3cccc(F)c3F)CC2)n1 [Example 2584, cis-N-(2,3-difluorobenzyl)-4-{[4-(dimethylamino)-6-methylpyrimidin-2-yl]amino}cyclohexanecarboxamide]

Same assay, conditions: MCH receptor activity class 1-3 (percent of control at 10^-7 M or IC50)

Row | SMILES | class
2 | COc1cc(NC(=S)N[C@H]2CC[C@@H](Nc3cc(N(C)C)c4ccccc4n3)CC2)c(OC)cc1Cl [compound 2308] | 3 (Class 3 The value of percent of control at 10^−7 M was more than 60% or the value of IC50 was more than 200 nM.)

Same assay, conditions: MCH receptor; class by percent of control at 10^-7 M or IC50

Row | SMILES | class
3 | Cc1ccc(C(=O)N[C@H]2CC[C@@H](Nc3cc(N(C)C)c4ccccc4n3)CC2)c(F)c1F [compound 60] | 3 (Class 3 The value of percent of control at 10^−7 M was more than 60% or the value of IC50 was more than 200 nM.)
4 | CN(C)c1cc(N[C@H]2CC[C@@H](CNC(=O)c3cc(Cl)sc3Cl)CC2)nc2ccccc12 [compound 210] | 3 (Class 3 The value of percent of control at 10^−7 M was more than 60% or the value of IC50 was more than 200 nM.)
5 | CCOC(=O)c1c(NC(=S)N[C@H]2CC[C@@H](Nc3nc4c(c(N(C)C)n3)CCCC4)CC2)sc2c1CCCC2 [compound 2069] | 3 (Class 3 The value of percent of control at 10^−7 M was more than 60% or the value of IC50 was more than 200 nM.)
6 | CCC(C(=O)N[C@H]1CC[C@@H](Nc2cc(N(C)C)c3ccccc3n2)CC1)c1ccccc1 (relative stereo) [compound 66] | 3 (Class 3 The value of percent of control at 10^−7 M was more than 60% or the value of IC50 was more than 200 nM.)
7 | Cc1ccc(Cl)cc1NC(=S)N[C@H]1CC[C@@H](Nc2nc3c(c(N(C)C)n2)CCCC3)CC1 [compound 1994] | 3 (Class 3 The value of percent of control at 10^−7 M was more than 60% or the value of IC50 was more than 200 nM.)
8 | CN(C)c1cc(N[C@H]2CC[C@@H](CNC(=O)c3ccc(F)c(Cl)c3F)CC2)nc2ccccc12 [compound 189, 3-chloro-N-[(cis-4-{[4-(dimethylamino)quinolin-2-yl]amino}cyclohexyl)methy]-2,4-difluorobenzamide] | 3 (Class 3 The value of percent of control at 10^−7 M was more than 60% or the value of IC50 was more than 200 nM.)

Same assay, conditions: activity class 1-3: percent of control at 10^-7 M or IC50

Row | SMILES | class
9 | CN(C)c1ccnc(N[C@H]2CC[C@@H](CNC(=O)OCC(C)(C)C)CC2)n1 [compound 1640] | 3 (Class 3 The value of percent of control at 10^−7 M was more than 60% or the value of IC50 was more than 200 nM.)
10 | CN(C)c1cc(N[C@H]2CC[C@@H](CNC(=O)Oc3cccc(C(F)(F)F)c3)CC2)nc2ccccc12 [compound 1562] | 3 (Class 3 The value of percent of control at 10^−7 M was more than 60% or the value of IC50 was more than 200 nM.)

Same assay, conditions: activity class per percent of control at 10^-7 M or IC50

Row | SMILES | class
11 | CN(C)c1nc(N[C@H]2CC[C@@H](CNC(=O)C3CC(=O)c4ccccc43)CC2)nc2c1CCCC2 (relative stereo) [compound 1071] | 3 (Class 3 The value of percent of control at 10^−7 M was more than 60% or the value of IC50 was more than 200 nM.)
12 | COc1cccc(OC)c1CN[C@H]1CC[C@@H](Nc2cc(N(C)C)c3ccccc3n2)CC1 [compound 1085] | 3 (Class 3 The value of percent of control at 10^−7 M was more than 60% or the value of IC50 was more than 200 nM.)
13 | CSc1ccc(CN[C@H]2CC[C@@H](Nc3cc(N(C)C)c4ccccc4n3)CC2)cc1 [compound 1118] | 3 (Class 3 The value of percent of control at 10^−7 M was more than 60% or the value of IC50 was more than 200 nM.)
14 | CN(C)c1nc(N[C@H]2CC[C@@H](NC(=O)c3cn(S(=O)(=O)c4ccccc4)c4ccccc34)CC2)nc2c1CCCC2 [compound 1045] | 3 (Class 3 The value of percent of control at 10^−7 M was more than 60% or the value of IC50 was more than 200 nM.)

Same assay, conditions: class 1-3 by percent of control at 10^-7 M or IC50

Row | SMILES | class
15 | CN(C)c1nc(N[C@H]2CC[C@@H](NC(=O)c3ccccc3SC(F)F)CC2)nc2c1CCCC2 [compound 518] | 3 (Class 3 The value of percent of control at 10^−7 M was more than 60% or the value of IC50 was more than 200 nM.)
16 | CN(C)c1nc(N[C@H]2CC[C@@H](NC(=O)c3cc(C(C)(C)C)nn3Cc3ccccc3)CC2)nc2c1CCCC2 [compound 521] | 2 (Class 2: The value of percent of control at 10^−7 M was from 40% to 60% or the value of IC′50 was from 50 nM to 200 nM.)

Same assay, conditions: class by percent of control at 10^-7 M or IC50

Row | SMILES | class
17 | CN(C)c1cc(N[C@H]2CC[C@@H](NC(=O)Cc3c[nH]c4ccc(OCc5ccccc5)cc34)CC2)nc2ccccc12 [compound 748] | 3 (Class 3 The value of percent of control at 10^−7 M was more than 60% or the value of IC50 was more than 200 nM.)
18 | CN(C)c1nc(N[C@H]2CC[C@@H](NC(=O)Nc3c(F)cc(F)cc3Br)CC2)nc2c1CCCC2 [compound 1852] | 3 (Class 3 The value of percent of control at 10^−7 M was more than 60% or the value of IC50 was more than 200 nM.)
19 | Cc1cc(C(=O)N[C@H]2CC[C@@H](Nc3nccc(N(C)C)n3)CC2)ccc1Br [compound 275, 4-bromo-N-(cis-4-{[4-(dimethylamino)pyrimidin-2-yl]amino}cyclohexyl)-3-methylbenzamide] | 1 (Class 1: The value of percent of control at 10^−7 M was less than 40% or the value of IC50 was less than 50 nM.)
20 | CCn1c2ccccc2c2cc(CNC[C@H]3CC[C@@H](Nc4nccc(N(C)C)n4)CC3)ccc21 [compound 1273] | 1 (Class 1: The value of percent of control at 10^−7 M was less than 40% or the value of IC50 was less than 50 nM.)
21 | CCCc1ccccc1NC(=O)N[C@H]1CC[C@@H](Nc2cc(N(C)C)c3ccccc3n2)CC1 [compound 2112] | 3 (Class 3 The value of percent of control at 10^−7 M was more than 60% or the value of IC50 was more than 200 nM.)
22 | CN(C)c1cc(N[C@H]2CC[C@@H](CNC(=O)c3ccccc3Br)CC2)nc2ccccc12 [compound 220] | 3 (Class 3 The value of percent of control at 10^−7 M was more than 60% or the value of IC50 was more than 200 nM.)
23 | COc1ccc(CNC[C@H]2CC[C@@H](Nc3nccc(N(C)C)n3)CC2)c(OC)c1 [compound 1252] | 2 (Class 2: The value of percent of control at 10^−7 M was from 40% to 60% or the value of IC′50 was from 50 nM to 200 nM.)
24 | Cc1ccccc1C(=O)NC[C@H]1CC[C@@H](Nc2nc3c(c(N(C)C)n2)CCCC3)CC1 [compound 658] | 3 (Class 3 The value of percent of control at 10^−7 M was more than 60% or the value of IC50 was more than 200 nM.)
25 | Cc1cc2occ(CN[C@H]3CC[C@@H](Nc4nccc(N(C)C)n4)CC3)c(=O)c2cc1Cl [compound 1228] | 3 (Class 3 The value of percent of control at 10^−7 M was more than 60% or the value of IC50 was more than 200 nM.)
26 | CCN(CC)c1ccc(CNC[C@H]2CC[C@@H](Nc3nc4c(c(N(C)C)n3)CCCC4)CC2)cc1 [compound 1392] | 2 (Class 2: The value of percent of control at 10^−7 M was from 40% to 60% or the value of IC′50 was from 50 nM to 200 nM.)
27 | CN(C)c1ccnc(N[C@H]2CC[C@@H](NC(=O)Cc3ccccc3)CC2)n1 [compound 263] | 3 (Class 3 The value of percent of control at 10^−7 M was more than 60% or the value of IC50 was more than 200 nM.)
28 | CN(C)c1ccnc(N[C@H]2CC[C@@H](NCc3c[nH]nc3-c3ccc(F)cc3)CC2)n1 [compound 1238] | 3 (Class 3 The value of percent of control at 10^−7 M was more than 60% or the value of IC50 was more than 200 nM.)
29 | Cc1cc(Br)cc(C)c1NC(=O)NC[C@H]1CC[C@@H](Nc2nc3c(c(N(C)C)n2)CCCC3)CC1 [compound 2482, N-(4-bromo-2,6-dimethylphenyl)-N′-[(cis-4-{[4-(dimethylamino)-5,6,7,8-tetrahydroquinazolin-2-yl]amino}cyclohexyl)methyl]urea] | 1 (Class 1: The value of percent of control at 10^−7 M was less than 40% or the value of IC50 was less than 50 nM.)
30 | Cc1cc(C)c(NC(=O)N[C@H]2CC[C@@H](Nc3cc(N(C)C)c4ccccc4n3)CC2)c(C)c1 [compound 2097, N-(cis-4-{[4-(dimethylamino)quinolin-2-yl]amino}cyclohexyl)-N′-mesitylurea] | 1 (Class 1: The value of percent of control at 10^−7 M was less than 40% or the value of IC50 was less than 50 nM.)
31 | CN(C)c1nc(N[C@H]2CC[C@@H](NC(=O)Nc3ccc(Br)cc3F)CC2)nc2c1CCCC2 [compound 1884] | 3 (Class 3 The value of percent of control at 10^−7 M was more than 60% or the value of IC50 was more than 200 nM.)
32 | CN(C)c1ccnc(N[C@H]2CC[C@@H](CNC(=O)c3ccc4c(c3)OCO4)CC2)n1 [compound 392] | 3 (Class 3 The value of percent of control at 10^−7 M was more than 60% or the value of IC50 was more than 200 nM.)
33 | COc1cc2ccccc2cc1CN[C@H]1CC[C@@H](Nc2nc3c(c(N(C)C)n2)CCCC3)CC1 [compound 1488] | 3 (Class 3 The value of percent of control at 10^−7 M was more than 60% or the value of IC50 was more than 200 nM.)
34 | Cc1ccc(C(=O)CC(SCc2ccc(Cl)cc2)C(=O)N[C@H]2CC[C@@H](Nc3cc(N(C)C)c4ccccc4n3)CC2)cc1 (relative stereo) [compound 742] | 3 (Class 3 The value of percent of control at 10^−7 M was more than 60% or the value of IC50 was more than 200 nM.)
35 | CN(C)c1ccnc(N[C@H]2CC[C@@H](NC(=O)Nc3ccc(C#N)cc3)CC2)n1 [compound 2208] | 3 (Class 3 The value of percent of control at 10^−7 M was more than 60% or the value of IC50 was more than 200 nM.)
36 | COc1cc(CCN[C@H]2CC[C@@H](Nc3cc(N(C)C)c4ccccc4n3)CC2)cc(OC)c1 [compound 1458] | 3 (Class 3 The value of percent of control at 10^−7 M was more than 60% or the value of IC50 was more than 200 nM.)
37 | Cc1ccc(CNC[C@H]2CC[C@@H](Nc3nc4c(c(N(C)C)n3)CCCC4)CC2)cc1I [compound 1508] | 3 (Class 3 The value of percent of control at 10^−7 M was more than 60% or the value of IC50 was more than 200 nM.)
38 | CN(C)c1nc(N[C@H]2CC[C@@H](CNCc3cc(C(F)(F)F)ccc3F)CC2)nc2c1CCCC2 [compound 1395] | 3 (Class 3 The value of percent of control at 10^−7 M was more than 60% or the value of IC50 was more than 200 nM.)
39 | COc1cc(Br)cc(CNC[C@H]2CC[C@@H](Nc3nccc(N(C)C)n3)CC2)c1O [compound 1250] | 1 (Class 1: The value of percent of control at 10^−7 M was less than 40% or the value of IC50 was less than 50 nM.)
